Literature values in patent publication US12350251B2, “Sexual health enhancement composition” (Rev Pharmaceuticals, Inc., priority 2016, dated 2025).
Read-outs that look alike come from different tables or passages of the source.

Tests used:
[1] = not given; remark: listed apart in the source
[2] = not given; remark: listed apart in the source
cAMP production = conditions: treated cells
human CC = conditions: in vitro, alone; read-out: EC50 of relaxation of human CC

For Cl.N=C(N)NCCC[C@H](N)C(=O)O [L-arginine hydrochloride (HCl), L-arginine hydrochloride], the Cmax (6 gm oral) is listed as 310 µM, the Half-life (IV) is listed as 1 h and the Half-life (PO) is listed as 1.5 h. The changes in hemodynamics ([1]; 6 gm doses) was “No significant changes”, the “urinary cGMP and nitrate excretion” value ([1]; about 6 gm to about 30 gm IV) was “significant increases” and the “blood pressure and total peripheral resistance” value ([1]; after 30 gm IV) was “significantly decreased”.
For N=C(N)NCCC[C@H](N)C(=O)O [L-arginine], the “peripheral vasodilation in humans” value ([1]; IV infusion or oral, about 6 to about 30 gm) is listed as “induced peripheral vasodilation”.
For C=C[C@@]1(C)CC(=O)[C@]2(O)[C@@]3(C)[C@@H](O)CCC(C)(C)[C@@H]3[C@H](O)[C@H](OC(C)=O)[C@@]2(C)O1 [forskolin], the water solubility [2] is listed as “water soluble”.
For COc1ccc(Cc2nccc3cc(OC)c(OC)cc23)cc1OC [papaverine], the cAMP production (cAMP production) is given as “unaffected”.
In the case of Cc1ccc(N(CC2=NCCN2)c2cccc(O)c2)cc1 [phentolamine], the cAMP production (cAMP production) is given as “unaffected”.
For CCCCC[C@H](O)/C=C/[C@H]1[C@H](O)CC(=O)[C@@H]1CCCCCCC(=O)O [prostaglandin E1], the EC50 (human CC) is listed as roughly 16 nM.
